Experimental data taken from ChEMBL document CHEMBL4673371, “Discovery of BAZ1A bromodomain inhibitors with the aid of virtual screening and activity evaluation” (Bioorg Med Chem Lett, 2021).

Key:
[1] = target: T1, Bromodomain adjacent to zinc finger domain protein 1A (Homo sapiens, UniProt Q9NRL2); assay: Binding affinity to recombinant human N-terminal His6-tagged BAZ1A (1446 to 1516 residues) expressed in Escherichia coli BL21 (DE3) cells assessed as change in melting temperature at 25 uM by DSF assay
T1 sequence (Q9NRL2 whole entry, the tested form may be a part): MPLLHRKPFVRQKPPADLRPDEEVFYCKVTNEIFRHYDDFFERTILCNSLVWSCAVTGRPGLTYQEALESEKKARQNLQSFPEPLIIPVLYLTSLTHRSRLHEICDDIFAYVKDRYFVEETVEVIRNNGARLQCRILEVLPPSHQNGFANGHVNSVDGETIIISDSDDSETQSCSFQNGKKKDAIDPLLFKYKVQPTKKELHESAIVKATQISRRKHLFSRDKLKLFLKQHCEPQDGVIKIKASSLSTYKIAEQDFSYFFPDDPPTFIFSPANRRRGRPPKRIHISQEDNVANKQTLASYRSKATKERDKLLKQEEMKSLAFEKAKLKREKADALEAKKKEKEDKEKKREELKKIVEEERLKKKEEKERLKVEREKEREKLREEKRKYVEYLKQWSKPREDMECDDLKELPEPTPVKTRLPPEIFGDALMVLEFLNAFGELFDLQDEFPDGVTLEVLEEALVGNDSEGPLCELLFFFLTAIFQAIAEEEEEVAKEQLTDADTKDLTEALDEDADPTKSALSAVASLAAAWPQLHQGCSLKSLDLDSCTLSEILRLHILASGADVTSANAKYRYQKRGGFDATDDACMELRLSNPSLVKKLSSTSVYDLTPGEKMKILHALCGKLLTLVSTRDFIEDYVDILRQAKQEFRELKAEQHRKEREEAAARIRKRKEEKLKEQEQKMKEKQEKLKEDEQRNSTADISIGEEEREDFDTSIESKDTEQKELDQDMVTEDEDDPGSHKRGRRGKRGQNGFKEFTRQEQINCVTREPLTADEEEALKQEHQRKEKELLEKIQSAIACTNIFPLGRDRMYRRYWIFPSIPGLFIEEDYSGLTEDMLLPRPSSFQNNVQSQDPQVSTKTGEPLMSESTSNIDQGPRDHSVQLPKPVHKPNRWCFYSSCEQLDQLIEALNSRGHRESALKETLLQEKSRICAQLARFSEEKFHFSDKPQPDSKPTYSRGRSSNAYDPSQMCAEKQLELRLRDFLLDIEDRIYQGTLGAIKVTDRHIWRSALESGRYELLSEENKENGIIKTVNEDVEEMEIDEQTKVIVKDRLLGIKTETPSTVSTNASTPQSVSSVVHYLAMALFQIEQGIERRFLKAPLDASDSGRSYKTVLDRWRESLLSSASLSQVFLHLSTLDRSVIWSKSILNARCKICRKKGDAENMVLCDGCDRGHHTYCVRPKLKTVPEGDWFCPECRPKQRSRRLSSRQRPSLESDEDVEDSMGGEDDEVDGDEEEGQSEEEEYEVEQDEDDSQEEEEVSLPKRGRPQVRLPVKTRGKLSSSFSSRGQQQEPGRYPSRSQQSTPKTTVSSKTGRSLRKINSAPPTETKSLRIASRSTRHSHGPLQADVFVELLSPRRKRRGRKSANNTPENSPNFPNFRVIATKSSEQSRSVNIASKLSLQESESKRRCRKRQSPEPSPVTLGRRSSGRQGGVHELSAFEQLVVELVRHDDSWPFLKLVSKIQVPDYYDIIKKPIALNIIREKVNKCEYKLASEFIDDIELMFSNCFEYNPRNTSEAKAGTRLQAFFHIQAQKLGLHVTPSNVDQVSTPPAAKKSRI

[2] = target: T1, Bromodomain adjacent to zinc finger domain protein 1A; assay: Binding affinity to recombinant human N-terminal His6-tagged BAZ1A (1446 to 1516 residues) expressed in Escherichia coli BL21 (DE3) cells by MST assay
THP-1 = assay: Cytotoxicity against human THP-1 cells assessed as reduction in cell viability incubated for 72 hrs by MTT assay; type: functional, cell-based; settings: THP-1, 72 h
U-87 MG = assay: Cytotoxicity against human U87 cells assessed as reduction in cell viability incubated for 72 hrs by MTT assay; type: functional, cell-based, U-87MG ATCC
Bel-7402 = assay: Cytotoxicity against human BEL7402 cells assessed as reduction in cell viability incubated for 72 hrs by MTT assay; type: functional, cell-based; settings: Bel-7402, 72 h
BT-474 = assay: Cytotoxicity against human BT474 cells assessed as reduction in cell viability incubated for 72 hrs by MTT assay; type: functional, cell-based; settings: BT-474, 72 h
[3] = Cytotoxicity against human H820 cells assessed as reduction in cell viability incubated for 72 hrs by MTT assay; type: functional, cell-based; settings: NCI-H820, 72 h
NCI-H1975 = assay: Cytotoxicity against human H1975 cells assessed as reduction in cell viability incubated for 72 hrs by MTT assay; type: functional, cell-based; settings: NCI-H1975, 72 h
ZR-75-30 = assay: Cytotoxicity against human ZR-75-30 cells assessed as reduction in cell viability incubated for 72 hrs by MTT assay; type: functional, cell-based; settings: ZR-75-30, 72 h

| SMILES | ΔTm [1] [°C] | Kd [2] [µM] | other results |
| --- | --- | --- | --- |
| O=C(Nc1cccc([N+](=O)[O-])c1)Nc1ccc2cccnc2c1 | 1.63 | 6.68 |  |
| CN(C)c1ccc(NC(=O)Nc2cccc([N+](=O)[O-])c2)cc1 | 1.56 | 1.76 |  |
| O=C(Nc1cccc([N+](=O)[O-])c1)Nc1ccc2c(c1)OCCO2 | 1.62 | 1.36 |  |
| O=C(Nc1ccc(C(F)(F)F)cc1)Nc1cccc(O)c1 | 3.15 | 13.2 |  |
| C=C(C)C(=O)Nc1ccc(-c2nc3cc(NC(=O)C(=C)C)ccc3[nH]2)cc1 | 1.61 | 15.2 |  |
| Cc1ccc2nc(-c3ccc(NC(=O)c4ccc([N+](=O)[O-])o4)cc3)oc2c1 | 1.9 | 26.6 |  |
| O=C(Nc1cccc([N+](=O)[O-])c1)Nc1nc(-c2ccccc2)cs1 | 2.73 | 0.52 | IC50 (THP-1): 5.08 µM; IC50 (U-87 MG): > 100 µM; IC50 (Bel-7402): > 100 µM; IC50 (BT-474): 10.7 µM; IC50 [3]: 73.7 µM; IC50 (NCI-H1975): 7.7 µM; IC50 (ZR-75-30): 4.29 µM |

The next lines start with results.

| ΔTm [1] [°C] | Kd [2] [µM] | SMILES | other results |
| --- | --- | --- | --- |
| 1.2 | 25.6 | O=C(NCC(=O)N1CCCCC1)Nc1ccc2nnsc2c1 |  |
| 1.16 | 22 | O=C(Nc1cccc([N+](=O)[O-])c1)Nc1ccc2c(c1)C(=O)CC2 |  |
| 1.25 | 1.87 | NC(C(=O)Nc1ccc2nnsc2c1)c1ccccc1 (centres undefined) |  |
| 1.62 | 8.2 | CC(NC(=O)Nc1ccc2nnsc2c1)c1cccc(F)c1 (centres undefined) |  |
| 1.68 | 16.3 | O=C(Nc1ccc2nnsc2c1)N(O)c1ccccc1 |  |
| 1.94 | 3.93 | O=C(Nc1ccc2cncnc2c1)Nc1ccc2nnsc2c1 |  |
| 1.46 | 57.6 | CN(Cc1cccc([N+](=O)[O-])c1)C(=O)Nc1ccc2nnsc2c1 |  |
| 1.64 | 3.09 | O=C(Nc1cccc([N+](=O)[O-])c1)Nc1ccc2nccnc2c1 |  |
| 2.59 | 1.57 | O=C(Nc1ccc(Cl)c(Cl)c1)Nc1ccc2nnsc2c1 |  |
